Assay results from US20140328852A1, “IMMUNOGENIC GLUTEN PEPTIDES AND USES THEREOF” (UNIVERSIDAD DE VALLADOLID, priority 2011, published 2014).

Legend:
Format in all cases: cell-based, human
autologous T lymphocytes = assay: Proliferation of autologous T lymphocytes in co-culture with peptide-stimulated dendritic cells; settings: for proliferative response of autologous T lymphocytes (in words): celiac HLA-DQ2+ and non-celiac HLA-DQ2− samples; for proliferation rate: 4 days co-culture
Experimental: FIG. 4. […] The mean and standard deviation of an experiment performed in triplicate are shown, and which is representative of three independent experiments with similar results. Each experiment was performed with an untreated celiac patient with genotype HLA-DQ2^+ and parallel to a healthy non-celiac individual HLA-DQ2^− as a control (C).
Monocyte-derived dendritic cells serve as antigen presenting cells. Stimulation experiments carried out in the present invention included a positive proliferation control (T lymphocytes cultured in the presence of monocyte-derived dendritic cells pre-activated in the presence of lipopolysaccharide, LPS) and two negative controls: CD14-fraction enriched with cultured T lymphocytes i) in basal medium and ii) in the presence of monocyte-derived dendritic cells unstimulated.
(§1) Mononuclear cells from ABO-compatible peripheral blood were isolated by centrifugation on a density gradient, and magnetic beads with anti-CD14 antibodies to separate CD14+ monocytes, that were induced for 6 days to differentiate into immature dendritic cells by IL-4 and GM-CSF (confirmed by flow cytometry) were isolated too. These cells were first stimulated for 48 hours with the 8-mer peptide (100 μg/mL, 10 μg/mL, 1 μg/mL) and other known gliadin peptides: 19-mer (100 μg/mL) and 33-mer (100 μg/mL) and then a co-culture with autologous T lymphocytes was performed (population CD14-obtained above), in which dendritic cells act as antigen presenting cells. As negative and positive controls of stimulation, a CD14-cell culture without dendritic cells (basal), and CD14-cells stimulated with lipopolysaccharide (LPS) were used respectively. After 4 days, the cell proliferation rate was calculated according to the absorbance ratio of stimulated/unstimulated dendritic cells in co-culture with autologous T lymphocytes.

[1] = tested on: dendritic cells derived from monocytes; assay: Phenotypic maturation of monocyte-derived dendritic cells (flow cytometry of membrane markers); settings: dendritic cells from healthy controls, peptide 100 μg/mL, 48 hours
Experimental: FIG. 2. […] Shadowed histograms represent the expression of the co-stimulator markers (CD40, CD80, CD86) or activators (CD83) in dendritic cells. Empty histograms represent isotype controls. This experiment is representative of three independent experiments; each of them is performed by triplicate.
as §1

[2] = tested on: dendritic cells derived from monocytes; assay: Cytokine mRNA expression in stimulated monocyte-derived dendritic cells; settings: dendritic cells from healthy donors, peptide 100 μg/ml, 48 hours
[3] = peptide 100 μg/ml, cells from celiac patients HLA-DQ2+, ratio stimulated/unstimulated dendritic cells
[4] = peptide 100 μg/ml, cells from non-celiac individuals HLA-DQ2−, ratio stimulated/unstimulated dendritic cells

Substance | proliferative response of autologous T lymphocytes (in words) (autologous T lymphocytes) | proliferation rate (autologous T lymphocytes; [3]) | proliferation rate (autologous T lymphocytes; [4]) | membrane expression of CD40 and CD80 markers [1] | membrane expression of CD83 or CD86 [1] | expression of IL-4 mRNA [2] | expression of IL-12p40 mRNA [2] | proliferation rate (autologous T lymphocytes; peptide 1 μg/ml, cells from celiac patients HLA-DQ2+) | proliferation rate (autologous T lymphocytes; peptide 1 μg/ml, cells from non-celiac individuals HLA-DQ2−) | proliferation rate (autologous T lymphocytes; peptide 10 μg/ml, cells from celiac patients HLA-DQ2+) | proliferation rate (autologous T lymphocytes; peptide 10 μg/ml, cells from non-celiac individuals HLA-DQ2−)
33-mer: known immunodominant α-gliadin peptide 33-mer (SEQ ID NO: 5) (LQLQPFPQPELPYPQPELPYPQPELPYPQPQPF; Gluten peptide 33-mer) | did not induce proliferation | 1.04±0.005 | 1.04±0.018 | did not affect | did not affect | 0.001 times | inhibited |  |  |  | 
8-mer: eight amino acid gliadin peptide (SEQ ID NO: 2) generated in the gut of celiac patients by bacterial proteases (FPLQPQQP; listed as Triticum aestivum) | induced a proliferative response | 2.09±0.029 | 1.51±0.108 | increased | not | 79 times | 0.4 times | 1.27±0.005 | 1.04±0.039 | 1.69±0.005 | 1.28±0.034
19-mer: known gliadin peptide 19-mer (SEQ ID NO: 4) (LGQQQPFPPQQPYPQPQPF; listed as Triticum monococcum) | did not induce proliferation | 1.06±0.011 | 1.03±0.039 | did not affect | did not affect | 7.7 times | 0.4 times |  |  |  | 
